From PubChem BioAssay AID330 (DTP/NCI, 2004) come the findings set out here.

The test system of this assay is P388 leukemia ip, CD2F1 mice, survival T/C. Kind of assay: NCI In Vivo Anticancer Drug Screen. Data for tumor model P388 Leukemia (intraperitoneal) in CD2F1 (CDF1) mice. To be noted: endpoint: median survival time, higher = longer survival. In outline: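 Mice carrying the transplanted tumor received test compound or vehicle. Survival was recorded in each group, and the value is the treated-group measurement divided by that of the vehicle-treated control group.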

Setting [1] is: dose: 60.0 mg/kg/injection, schedule: Q01DX005 (ip), vehicle: saline with Tween-80.
[2] abbreviates: dose: 120.0 mg/kg/injection, schedule: Q01DX005 (ip), vehicle: saline with Tween-80.
Where [3] appears, read: dose: 240.0 mg/kg/injection, schedule: Q01DX005 (ip), vehicle: saline with Tween-80.
The mark [4] stands for this setting: dose: 12.5 mg/kg/injection, schedule: Q01DX005 (ip), vehicle: saline with Tween-80.
The mark [5] stands for this setting: dose: 25.0 mg/kg/injection, schedule: Q01DX005 (ip), vehicle: saline with Tween-80.
The mark [6] stands for this setting: dose: 50.0 mg/kg/injection, schedule: Q01DX005 (ip), vehicle: saline with Tween-80.
[7] abbreviates: dose: 100.0 mg/kg/injection, schedule: Q01DX005 (ip), vehicle: saline with Tween-80.
Setting [8] is: dose: 200.0 mg/kg/injection, schedule: Q01DX005 (ip), vehicle: saline with Tween-80.
[9] abbreviates: dose: 50.0 mg/kg/injection, schedule: Q01DX005 (ip), vehicle: Klucel (hydroxypropylcellulose) (HPC).
[10] abbreviates: dose: 100.0 mg/kg/injection, schedule: Q01DX005 (ip), vehicle: Klucel (hydroxypropylcellulose) (HPC).
The mark [11] stands for this setting: dose: 200.0 mg/kg/injection, schedule: Q01DX005 (ip), vehicle: Klucel (hydroxypropylcellulose) (HPC).

SMILES strings stand for the structures. Values joined by “and” are separate entries in the source; they are usually repeats but may differ in a detail not shown here. Identical values can stand only once. Inconclusive results and toxic doses are left out.

As for `COc1cccc2c1C(=O)c1c(O)c3c(c(O)c1C2=O)C[C@@](O)(/C(C)=N/NC(=O)c1ccc(S(N)(=O)=O)cc1)C[C@@H]3OC1CC(N)C(O)C(C)O1` (some centres undefined), the T/C was 150 % of control (dose: 0.78 mg/kg/injection, schedule: Q01DX009 (ip), vehicle: water); 161 % of control (dose: 1.56 mg/kg/injection, schedule: Q01DX009 (ip), vehicle: water); 154 % of control and 182 % of control (dose: 3.13 mg/kg/injection, schedule: Q01DX009 (ip), vehicle: water); 105 % of control and 106 % of control (dose: 4.7 mg/kg/injection, schedule: Q04DX003 (ip), vehicle: water); 178 % of control and 201 % of control (dose: 6.25 mg/kg/injection, schedule: Q01DX009 (ip), vehicle: water); 161 % of control (dose: 12.5 mg/kg/injection, schedule: Q01DX001 (ip), vehicle: water). The T/C was 196 % of control and 214 % of control (dose: 12.5 mg/kg/injection, schedule: Q01DX009 (ip), vehicle: water); 123 % of control (dose: 18.8 mg/kg/injection, schedule: Q04DX003 (ip), vehicle: water); 188 % of control (dose: 25.0 mg/kg/injection, schedule: Q01DX001 (ip), vehicle: water); 203 % of control (dose: 37.5 mg/kg/injection, schedule: Q04DX003 (ip), vehicle: water); 122 % of control (dose: 75.0 mg/kg/injection, schedule: Q04DX003 (ip), vehicle: water); 100 % of control and 93 % of control (dose: 150.0 mg/kg/injection, schedule: Q04DX003 (ip), vehicle: water).
`O=C(/C=C/c1ccccc1)c1cc2c(cc1O)OCO2`: the T/C runs as follows: under setting [1], 103 % of control; under setting [2], 107 % of control; under setting [3], 100 % of control.
With `O=C1c2cscc2C(=O)c2c(Cl)sc(Cl)c21`, the T/C (dose: 25.0 mg/kg/injection, schedule: Q01DX009 (ip), vehicle: saline with Tween-80) was 95 % of control.
With `NC(N)=N/N=C/c1c2ccccc2cc2ccccc12`, the T/C was 100 % of control and 101 % of control (dose: 6.25 mg/kg/injection, schedule: Q01DX005 (ip), vehicle: saline with Tween-80); 107 % of control and 109 % of control and 121 % of control under setting [4]; 104 % of control and 113 % of control and 121 % of control under setting [5].
Consider `CCC12C=CCN3CC[C@@]4(c5cc([C@@]6(C(=O)OC)C[C@@H]7CN(CCc8c6[nH]c6ccccc86)C[C@](O)(CC)C7)c(OC)cc5N(C)[C@H]4[C@@](O)(C(=O)OC)[C@@H]1OC(=O)CCCCCCCCCCCN1C(=O)C=CC1=O)[C@H]32` (some centres undefined), for which the T/C was 124 % of control (dose: 6.25 mg/kg/injection, schedule: Q01DX001 (ip), vehicle: other); 161 % of control (dose: 12.5 mg/kg/injection, schedule: Q01DX001 (ip), vehicle: saline with Tween-80); 200 % of control (dose: 25.0 mg/kg/injection, schedule: Q01DX001 (ip), vehicle: other); 238 % of control (dose: 25.0 mg/kg/injection, schedule: Q01DX001 (ip), vehicle: saline with Tween-80); 202 % of control (dose: 25.0 mg/kg/injection, schedule: Q01DX001 (ip), vehicle: saline); 215 % of control (dose: 50.0 mg/kg/injection, schedule: Q01DX001 (ip), vehicle: saline).
Consider `CCCCCC(O)/C=C/[C@H]1C(O)CC2O/C(=C\CCCC(=O)O)C[C@@H]21` (some centres undefined), for which the T/C by setting is: (dose: 50.0 mg/kg/injection, schedule: Q01DX005 (ip), vehicle: saline) 102 % of control; (dose: 100.0 mg/kg/injection, schedule: Q01DX005 (ip), vehicle: saline) 100 % of control; (dose: 200.0 mg/kg/injection, schedule: Q01DX005 (ip), vehicle: saline) 95 % of control.
On to `O=C1CN(c2ccc(Cl)cc2)C(=O)CN1/N=C/c1ccco1`, for which the T/C runs as follows: under setting [6], 103 % of control; under setting [7], 107 % of control; under setting [8], 100 % of control.
Regarding `CCC(C)C(F)C(=O)O` (centres undefined), the T/C under setting [6] was 98 % of control and the T/C under setting [7] was 88 % of control.
In the case of `CSc1nc(N)nc2c1ncn2C1CC(O)C(CO)O1` (centres undefined), the T/C (dose: 50.0 mg/kg/injection, schedule: Q04DX003 (ip), vehicle: Klucel (hydroxypropylcellulose) (HPC)) was 94 % of control; the T/C (dose: 100.0 mg/kg/injection, schedule: Q04DX003 (ip), vehicle: Klucel (hydroxypropylcellulose) (HPC)) was 100 % of control; the T/C (dose: 200.0 mg/kg/injection, schedule: Q04DX003 (ip), vehicle: Klucel (hydroxypropylcellulose) (HPC)) is 107 % of control; the T/C (dose: 400.0 mg/kg/injection, schedule: Q04DX003 (ip), vehicle: Klucel (hydroxypropylcellulose) (HPC)) is 106 % of control.
For `CC1C(=O)C(C)C(c2ccccc2)N(C)C1c1ccccc1` (centres undefined), the T/C runs as follows: under setting [6], 96 % of control; under setting [1], 101 % of control; under setting [7], 106 % of control; under setting [2], 96 % of control; under setting [8], 98 % of control; under setting [3], 106 % of control.
With `NC(CCCCNC(=S)S)C(=O)O.[Zn+2]` (centres undefined), the T/C is 107 % of control under setting [9], 107 % of control under setting [10] and 107 % of control under setting [11].
On to `CNc1nc(NC)nc(NC)n1`, for which the T/C (dose: 12.5 mg/kg/injection, schedule: Q01DX009 (ip), vehicle: saline) was 95 % of control; the T/C (dose: 25.0 mg/kg/injection, schedule: Q01DX009 (ip), vehicle: saline) was 104 % of control; the T/C (dose: 50.0 mg/kg/injection, schedule: Q01DX009 (ip), vehicle: saline) is 95 % of control; the T/C (dose: 100.0 mg/kg/injection, schedule: Q01DX009 (ip), vehicle: saline) is 93 % of control.
As for `[O-][n+]1cscc1-c1nc2ccccc2[nH]1`, the T/C was 100 % of control under setting [9], 98 % of control under setting [10] and 102 % of control under setting [11].
As to `CC(=O)Nc1ccc2c3c(cccc13)CC2`, the T/C is 101 % of control (dose: 50.0 mg/kg/injection, schedule: Q01DX009 (ip), vehicle: Klucel (hydroxypropylcellulose) (HPC)); 106 % of control (dose: 100.0 mg/kg/injection, schedule: Q01DX009 (ip), vehicle: Klucel (hydroxypropylcellulose) (HPC)); 108 % of control (dose: 200.0 mg/kg/injection, schedule: Q01DX009 (ip), vehicle: Klucel (hydroxypropylcellulose) (HPC)).
On to `O=C(O)c1c2ccccc2nc2ccccc12`, for which the T/C reads like this: under setting [4], 106 % of control and 93 % of control; under setting [5], 100 % of control and 95 % of control; under setting [6], 104 % of control and 113 % of control and 121 % of control.
